Measurements: patent US20050113450A1, “Antibacterial agents” (priority 2002, published 2005)
≈ marks a conversion by molar mass, not a printed value.

System: SA 9218
Test: MIC by standard agar dilution method
Format: cell-based
Details: Mueller Hinton agar, 10^4 to 10^5 cells per spot, incubated overnight at 35° C., lowest concentration that inhibits visible growth
Excerpt: The antibacterial agents of this invention have useful activity against a variety of organisms. The in vitro activity of compounds of this invention can be assessed by standard testing procedures such as the determination of minimum inhibitory concentration (MIC) by agar dilution as described in “Approved Standard. Methods for Dilution Antimicrobial Susceptibility Tests for Bacteria That Grow Aerobically”, 3rd. ed., published 1993 by the National Committee for Clinical Laboratory Standards, Villanova, Pa., USA. The in vitro MICs of test compounds were determined by a standard agar dilution method. A stock drug solution of each analog was prepared in the preferred solvent, usually DMSO:H2O (1:3). Serial 2-fold dilutions of each sample are made using 1.0 ml aliquots of sterile distilled water. To each 1.0 ml aliquot of drug was added 9 ml of molten Mueller Hinton agar medium. The drug-supplemented agar was mixed, poured into 15×100 mm petri dishes, and allowed to solidify and dry prior to inoculation. Vials of each of the test organisms are maintained frozen in the vapor phase of a liquid nitrogen freezer. Test cultures are grown overnight at 35° C. on the medium appropriate for the organism. Colonies are harvested with a sterile swab, and cell suspensions are prepared in Trypticase Soy broth (TSB) to equal the turbidity of a 0.5 McFarland standard. A 1:20 dilution of each suspension was made in TSB. The plates containing the drug supplemented agar are inoculated with a 0.001 ml drop of the cell suspension using a Steers replicator, yielding approximately 10^4 to 10^5 cells per spot. The plates are incubated overnight at 35° C. Following incubation the Minimum Inhibitory Concentration (MIC μg/ml), the lowest concentration of drug that inhibits visible growth of the organism, was read and recorded.

| MIC [mg/L] | SA 9218 MIC [mg/L] | Compound |
| --- | --- | --- |
| > 128 |  | COc1ccc(C(=O)Nc2ccc(Br)cc2C(=O)O)cc1S(=O)(=O)Nc1ccc(Cl)c2ccccc12 |
| 64 (≈ 138 µM) |  | CCCC(Oc1ccc(C(=O)Nc2ccc(Br)cc2C(=O)O)cc1)C(=O)OCC (centres unmarked) [drawing 1091] |
| 32 (≈ 72.5 µM) |  | CN(C1CCCCC1)S(=O)(=O)c1ccc(C(=O)Nc2ccc(C#N)cc2C(=O)O)cc1 [PHA-571264] |
| 8 (≈ 16.8 µM) |  | O=C(Nc1ccc(Br)cc1C(=O)O)c1ccc(NS(=O)(=O)c2ccccc2)cc1 [PHA-708994] |
| 8 (≈ 16 µM) |  | O=C(Nc1ccc(-c2ccccc2)cc1C(=O)O)c1ccc(S(=O)(=O)N2CCc3ccccc32)cc1 [L-217792] |
| 16 (≈ 26.5 µM) |  | CN(c1ccc(Cl)cc1)S(=O)(=O)c1ccc(Br)c(C(=O)Nc2ccc(Br)cc2C(=O)O)c1 [PNU-291061] |
| 0.5 (≈ 0.966 µM) |  | O=C(Nc1ccc(Br)cc1C(=O)O)c1ccc(S(=O)(=O)n2ccc3cc(F)ccc32)cc1 [PNU-291129] |
| 8 (≈ 13.4 µM) |  | COc1ncc(-c2ccc(NC(=O)c3cccc(S(=O)(=O)N4CCc5cc(Cl)ccc54)c3)c(C(=O)O)c2)c(OC)n1 [PHA-568906] |
| 128 (≈ 234 µM) |  | Cc1ccc(C(=O)Nc2ccc(Br)cc2C(=O)O)cc1S(=O)(=O)NCc1ccc(N(C)C)cc1 |
| 128 (≈ 295 µM) |  | O=C1CCC(COc2cccc(C(=O)Nc3ccc(Br)cc3C(=O)O)c2)N1 (centres unmarked) [PHA-571281] |
| 64 (≈ 176 µM) |  | CCOc1cccc(C(=O)Nc2ccc(Br)cc2C(=O)O)c1 |
| 64 (≈ 180 µM) |  | COc1cc(C(=O)Nc2ccc(C#N)cc2C(=O)O)cc(OC)c1OC |
| 1 (≈ 2.04 µM) |  | O=C(Nc1ccc(Br)cc1C(=O)O)c1ccc(S(=O)(=O)Nc2ccccc2O)cc1 [PNU-291997] |
| 32 (≈ 65.5 µM) |  | Cc1ccc(S(=O)(=O)Cc2ccc(C(=O)Nc3ccc(Br)cc3C(=O)O)cc2)cc1 [PHA-713411] |
| 8 (≈ 19.1 µM) |  | O=C(Nc1ccc(Cl)cc1C(=O)O)c1ccc(C(=O)c2c[nH]c3ccccc23)cc1 |
| 2 (≈ 3.73 µM) |  | O=C(Nc1ccc(Br)cc1C(=O)O)c1cccc(S(=O)(=O)N2CCc3ccc(Cl)cc32)c1 |
|  | 1 | O=C(Nc1ccc(Br)cc1C(=O)O)c1cccc(C(O)c2ccccc2)c1 (centres unmarked) [PHA-521534] |
|  | 32 | N#Cc1ccc(NC(=O)c2ccccc2)c(C(=O)O)c1 [PHA-530685] |
| 32 (≈ 57.9 µM) |  | O=C(Nc1ccc(C(=O)C2CCCC2)cc1C(=O)O)c1cccc(S(=O)(=O)N2CCc3ccc(Cl)cc32)c1 |
| 1 (≈ 2.1 µM) |  | O=C(Nc1ccc(Br)cc1C(=O)O)c1cccc(NS(=O)(=O)c2ccccc2)c1 [PHA-713409] |

| MIC [mg/L] | SA 9218 MIC [mg/L] | Compound |
| --- | --- | --- |
| 4 (≈ 8.48 µM) |  | Nc1cc(C(=O)Nc2ccc(Cl)cc2C(=O)O)ccc1S(=O)(=O)N1CCc2ccccc21 [PNU-290881A] |
| 0.25 (≈ 0.649 µM) |  | N#Cc1ccc(NC(=O)c2cccc(C(=NO)c3ccccc3)c2)c(C(=O)O)c1 [PHA-535548] |
| 0.125 (≈ 0.25 µM) |  | O=C(Nc1ccc(Br)cc1C(=O)O)c1ccc(S(=O)(=O)n2ccc3ccccc32)cc1 [PNU-283318] |
| 8 (≈ 27 µM) |  | COc1cccc(C(=O)Nc2ccc(C#N)cc2C(=O)O)c1 [PHA-571151] |
| 32 (≈ 70.4 µM) |  | O=C(Nc1ccccc1)Nc1cccc(C(=O)Nc2ccc(Br)cc2C(=O)O)c1 [PHA-708988] |
|  | 2 | COc1ccc(C(=O)Nc2ccc(Cl)cc2C(=O)O)cc1[N+](=O)[O-] [PNU-292070] |
| 8 (≈ 15.4 µM) |  | O=C(Nc1ccc(I)cc1C(=O)O)c1cccc(S(=O)(=O)N2CCSC2)c1 |
| 16 (≈ 44.2 µM) |  | CC(=O)c1ccc(C(=O)Nc2ccc(Br)cc2C(=O)O)cc1 [PHA-520446] |
| 32 (≈ 70.7 µM) |  | CCOc1cc(C(=O)Nc2ccc(Br)cc2C(=O)O)cc(OCC)c1OCC |
| 64 (≈ 132 µM) |  | CCN(CCOc1ccc(C(=O)Nc2ccc(Br)cc2C(=O)O)cc1)c1ccccc1 |
| 16 (≈ 26.2 µM) |  | CN(C)c1ccc(CNS(=O)(=O)c2ccc(Br)c(C(=O)Nc3ccc(Br)cc3C(=O)O)c2)cc1 |
| 16 (≈ 34 µM) |  | O=C(Nc1ccc(Br)cc1C(=O)O)c1cccc(OCc2cccc([N+](=O)[O-])c2)c1 |
| 16 (≈ 44.7 µM) |  | O=C(Nc1ccc(Cl)cc1C(=O)O)c1cccc(C(=O)C2CCC2)c1 [PHA-656888] |
| 64 (≈ 144 µM) |  | Cc1cc(C)n(COc2ccc(C(=O)Nc3ccc(Br)cc3C(=O)O)cc2)n1 |
| 4 (≈ 9.38 µM) |  | O=C(Nc1ccc(Br)cc1C(=O)O)c1cccc(OCc2ccccc2)c1 [drawing 1037] |
| 32 (≈ 95.2 µM) |  | O=C(Nc1ccc(Br)cc1C(=O)O)c1cccc(O)c1 |
| 4 (≈ 8.43 µM) |  | O=C(O)c1cc(Cl)ccc1/C=C/c1cccc(S(=O)(=O)N2CCc3cc(Cl)ccc32)c1 [PHA-707801] |
| 32 (≈ 82.3 µM) |  | O=C(Nc1ccc(Cl)cc1C(=O)O)c1ccc(C(=NO)C2CCCO2)cc1 (centres unmarked) |
| 2 (≈ 3.67 µM) |  | COc1ccc(C(=O)Nc2ccc(Br)cc2C(=O)O)cc1S(=O)(=O)NC1Cc2ccccc2C1 |

Second part, the molecule before the results:

| Compound | MIC [mg/L] | SA 9218 MIC [mg/L] |
| --- | --- | --- |
| O=C(Nc1ccc(C(=O)C2CCCC2)cc1C(=O)O)c1ccc(S(=O)(=O)N2CCc3ccc(Cl)cc32)cc1 | 16 (≈ 28.9 µM) |  |
| COC(COc1ccc(C(=O)Nc2ccc(Br)cc2C(=O)O)cc1)c1ccccc1 (centres unmarked) | 64 (≈ 136 µM) |  |
| O=C(Nc1ccc(I)cc1C(=O)O)c1cccc(S(=O)(=O)N2CCOCC2)c1 [PHA-571458] | 4 (≈ 7.75 µM) |  |
| N#Cc1ccc(NC(=O)c2cccc(S(=O)(=O)Nc3ccc4c(c3)CCC4)c2)c(C(=O)O)c1 [PHA-656860] | 8 (≈ 17.3 µM) |  |
| O=C(Nc1ccc(Br)cc1C(=O)O)c1cc(S(=O)(=O)Nc2ccc(Cl)cc2)ccc1Br | 4 (≈ 6.8 µM) |  |
| N#Cc1ccc(NC(=O)c2cccc(OCc3ccccc3)c2)c(C(=O)O)c1 [PHA-569974] | 1 (≈ 2.69 µM) |  |
| COc1cc(C(=O)Nc2ccc(Br)cc2C(=O)O)ccc1[N+](=O)[O-] | 32 (≈ 81 µM) |  |
| C[C@H](c1ccccc1)N(C)S(=O)(=O)c1cccc(C(=O)Nc2ccc(C#N)cc2C(=O)O)c1 [PHA-562862] | 4 (≈ 8.63 µM) |  |
| O=C(Nc1ccc(Cl)cc1C(=O)O)c1ccc(C(=NOCc2ccccc2)c2ccco2)cc1 | 32 (≈ 67.4 µM) |  |
| CC(Sc1cccc(C(=O)Nc2ccc(C#N)cc2C(=O)O)c1)c1ccccc1 (centres unmarked) [PHA-547267] | 0.125 (≈ 0.311 µM) |  |
| CCOc1cc(C(=O)Nc2ccc(C#N)cc2C(=O)O)cc(OCC)c1OCC | 16 (≈ 40.2 µM) |  |
| CON=C(c1cccc(C(=O)Nc2ccc(Cl)cc2C(=O)O)c1)c1ccco1 | 16 (≈ 40.1 µM) |  |
| Cc1ccc(NC(=O)c2cccc(S(=O)(=O)N3CCc4cc(Cl)ccc43)c2)c(C(=O)O)c1 [PHA-552831] | 1 (≈ 2.12 µM) |  |
| O=C(Nc1ccc(Cl)cc1C(=O)O)c1ccc(C(=O)C2CCCC2)cc1 [drawing 1111] | 4 (≈ 10.8 µM) |  |
| COC(=O)c1cc(C(=O)Nc2ccc(Br)cc2C(=O)O)cc([N+](=O)[O-])c1 | 64 (≈ 151 µM) |  |
| N#Cc1ccc(NC(=O)c2cccc(S(=O)(=O)N3CCOCC3)c2)c(C(=O)O)c1 [PHA-568420] |  | 0.5 |
| Cc1oc(-c2ccccc2)nc1CCOc1cccc(C(=O)Nc2ccc(Br)cc2C(=O)O)c1 | 32 (≈ 61.4 µM) |  |
| O=C(Nc1ccc(Cl)cc1C(=O)O)c1cccc(C(=O)c2cc(F)cc(F)c2)c1 [PHA-656893] | 8 (≈ 19.2 µM) |  |
| O=C(Nc1ccc(Br)cc1C(=O)O)c1ccc(Br)c(S(=O)(=O)Nc2ccc3c(c2)OCCO3)c1 | 64 (≈ 105 µM) |  |
| COc1cc(C(=O)c2ccc(C(=O)Nc3ccc(Cl)cc3C(=O)O)cc2)cc(OC)c1OC | 4 (≈ 8.51 µM) |  |
| O=C(Nc1ccc(Br)cc1C(=O)O)c1cccc(Br)c1 | 8 (≈ 20 µM) |  |

| Compound | MIC [mg/L] | SA 9218 MIC [mg/L] |
| --- | --- | --- |
| O=C(Nc1ccc(Cl)cc1C(=O)O)c1cccc(C(NC2CCCC2)c2ccccc2)c1 (centres unmarked) | 4 (≈ 8.91 µM) |  |
| Cc1ccccc1-c1ccc(NC(=O)c2cccc(S(=O)(=O)N3CCc4cc(Cl)ccc43)c2)c(C(=O)O)c1 [PHA-568205] | 2 (≈ 3.66 µM) |  |
| CC(C)(C)N1C(=O)c2ccc(C(=O)Nc3ccc(Br)cc3C(=O)O)cc2C1=O [PHA-630989] | 4 (≈ 8.98 µM) |  |
| C=Cc1ccc(C(=O)Nc2ccc(C#N)cc2C(=O)O)cc1 | 8 (≈ 27.4 µM) |  |
| N#Cc1ccc(NC(=O)c2ccc(S(=O)(=O)N(CCO)Cc3ccccc3)cc2)c(C(=O)O)c1 [PHA-656862] | 32 (≈ 66.7 µM) |  |
| CCCOc1ccc(C(=O)Nc2ccc(C#N)cc2C(=O)O)cc1 | 16 (≈ 49.3 µM) |  |
| CCN(CC)c1ccc(NS(=O)(=O)c2cccc(C(=O)Nc3ccc(Br)cc3C(=O)O)c2)cc1 | 128 (≈ 234 µM) |  |
| O=C(Nc1ccc(-c2cccs2)cc1C(=O)O)c1ccc(S(=O)(=O)N2CCc3ccccc32)cc1 | 4 (≈ 7.93 µM) |  |
| CCN(CC)c1ccc(C(=O)Nc2ccc(Br)cc2C(=O)O)cc1 | 32 (≈ 81.8 µM) |  |
| CC1CCC(C)N1S(=O)(=O)c1cccc(C(=O)Nc2ccc(C#N)cc2C(=O)O)c1 (centres unmarked) [PHA-569077] | 1 (≈ 2.34 µM) |  |
| CN(C)c1cccc(C(=O)Nc2ccc(C#N)cc2C(=O)O)c1 | 8 (≈ 25.9 µM) |  |
| Nc1ccc(CCNS(=O)(=O)c2ccc(C(=O)Nc3ccc(Br)cc3C(=O)O)cc2)cc1 | 64 (≈ 123 µM) |  |
| COc1ccc(C(=O)Nc2ccc(Br)cc2C(=O)O)cc1S(=O)(=O)Nc1ccc2c(c1)OCCO2 | 8 (≈ 14.2 µM) |  |
| N#Cc1ccc(NC(=O)c2ccc(Oc3ccccc3)cc2)c(C(=O)O)c1 [PHA-561055] | 1 (≈ 2.79 µM) |  |
| O=C(Nc1ccc(C(=NO)c2ccccc2)cc1C(=O)O)c1ccc(S(=O)(=O)N2CCc3ccccc32)cc1 | 128 (≈ 236 µM) |  |
| COc1ccc(C(=O)Nc2ccc(Br)cc2C(=O)O)cc1S(=O)(=O)NCc1ccc(N(C)C)cc1 | > 128 |  |
| CCCCN(CC#N)S(=O)(=O)c1cccc(C(=O)Nc2ccc(C#N)cc2C(=O)O)c1 [PHA-571237] | 16 (≈ 36.3 µM) |  |
| O=C(Nc1ccc(Cl)cc1C(=O)O)c1ccc(SCc2ccccc2)c(Br)c1 [PNU-290882] | 1 (≈ 2.1 µM) |  |
| O=C(Nc1ccc(Br)cc1C(=O)O)c1ccc(OCc2cccc(F)c2)cc1 | 32 (≈ 72 µM) |  |
| O=C(Nc1ccc(Br)cc1C(=O)O)c1ccc(S(=O)(=O)Nc2ccc(N3CCOCC3)cc2)cc1 | 64 (≈ 114 µM) |  |
